The target in the assay is T1, IGF-1R Ba/F3 (Homo sapiens, UniProt P08069).
T1 construct: fused on or other part: TEL- (or BCR-) IGF-1R in Ba/F3: the kinase part holds the site
In words: Ba/F3 Cell Viability Inhibition Assay (IGF-1R Ba/F3). The assay is classed as cell-based, murine. The settings on record: Tel-TK transformed Ba/F3 cells, 48 hours, Britelite luminescence. In outline:
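IL-3-independent murine Ba/F3 cells transformed with a TEL/BCR-fused IGF-1R kinase were seeded at 3750 cells/well and exposed to serially diluted compound for 48 h at 37 °C. Viability was read by Britelite luminescence. IC50 is the concentration giving 50% of DMSO-control viability, from a logistic fit.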

One may read the IC50 as the concentration that inhibits the measured activity by half. Lower therefore signals inhibition by little substance.

Structures are written as SMILES.

T1 sequence (P08069 999-1274 limits assumed): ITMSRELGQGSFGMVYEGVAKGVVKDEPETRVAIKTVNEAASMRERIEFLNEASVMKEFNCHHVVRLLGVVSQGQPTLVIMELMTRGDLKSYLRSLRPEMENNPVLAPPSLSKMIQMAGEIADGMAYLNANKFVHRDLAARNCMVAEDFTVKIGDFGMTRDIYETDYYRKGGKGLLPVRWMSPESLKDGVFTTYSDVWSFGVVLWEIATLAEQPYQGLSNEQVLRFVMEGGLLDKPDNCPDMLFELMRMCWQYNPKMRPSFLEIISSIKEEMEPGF

As for `CNC(=O)CN1CCC[C@H](c2cc(C)c(Nc3ncc(Cl)c(Nc4cc(C)[nH]n4)n3)cc2C)C1` (single isomer, unassigned) [Compound 207], inhibition was half-maximal at 0.026 µM (IC50).
For `Cc1cc(Nc2nc(Nc3cc(C)c(C4CCCCN4C[C@@H](O)C(F)(F)F)cc3C)ncc2Cl)n[nH]1` (stereo partly drawn) [Compound 229, (2R)-3-(2-(4-(5-chloro-4-(5-methyl-1H-pyrazol-3-ylamino)pyrimidin-2-ylamino)-2,5-dimethylphenyl)piperidin-1-yl)-1,1,1-trifluoropropan-2-ol] the value was 0.211 µM; for `Cc1cc(Nc2nc(Nc3cc(C)c(C4CCN(C(=O)CCN(C)C)CC4)cc3F)ncc2Cl)n[nH]1` [Compound 78, 1-(4-(4-(5-chloro-4-(5-methyl-1H-pyrazol-3-ylamino)pyrimidin-2-ylamino)-5-fluoro-2-methylphenyl)piperidin-1-yl)-3-(dimethylamino)propan-1-one], 0.138 µM.
In turn, `Cc1cc(Nc2nc(Nc3cc(C)c(C4CCN(C(=O)OC(C)C)CC4)cc3F)ncc2Cl)n[nH]1` [Compound 68, isopropyl 4-(4-(5-chloro-4-(5-methyl-1H-pyrazol-3-ylamino)pyrimidin-2-ylamino)-5-fluoro-2-methylphenyl)piperidine-1-carboxylate] displayed an IC50 of 0.08 µM. Against the preceding molecule, the IC50 is about 1.7-fold lower.
For `Cc1cc(Nc2nc(Nc3cc(C)c([C@H]4COC(=O)N4)cc3C)ncc2Cl)n[nH]1` [Compound 230, (S)-4-(4-(5-chloro-4-(5-methyl-1H-pyrazol-3-ylamino)pyrimidin-2-ylamino)-2,5-dimethylphenyl)oxazolidin-2-one] the value was 0.04 µM.
For `Cc1cc(Nc2nc(Nc3cc(C)c(C4CCN(C5CCC5)CC4)cc3F)ncc2Cl)n[nH]1` [Compound 272, 5-chloro-N2-(4-(1-cyclobutylpiperidin-4-yl)-2-fluoro-5-methylphenyl)-N4-(5-methyl-1H-pyrazol-3-yl)pyrimidine-2,4-diamine] the value was 0.05 µM.
The molecule `Cc1cc(Nc2nc(Nc3cc(C4CCN(CCC(F)(F)F)CC4)c(F)cc3C)ncc2Cl)n[nH]1` [Compound 28, 5-chloro-N2-(4-fluoro-2-methyl-5-(1-(3,3,3-trifluoropropyl)piperidin-4-yl)phenyl)-N4-(5-methyl-1H-pyrazol-3-yl)pyrimidine-2,4-diamine] gave an IC50 of 5.46 µM. This IC50 lies about 110-fold higher than the previous one.
In the case of `Cc1cc(Nc2nc(Nc3cc(C)c(C4CCN(C(=O)Cn5cccc5)CC4)cc3F)ncc2Cl)n[nH]1` [Compound 100, 1-(4-(4-(5-chloro-4-(5-methyl-1H-pyrazol-3-ylamino)pyrimidin-2-ylamino)-5-fluoro-2-methylphenyl)piperidin-1-yl)-2-(1H-pyrrol-1-yl)ethanone] it was 0.025 µM.
In the case of `Cc1cc(Nc2nc(Nc3cc(C)c(C4CCN(C5CCN(C(=O)OC(C)(C)C)C5)CC4)cc3F)ncc2Cl)n[nH]1` (centres unmarked) [Compound 291, tert-butyl 3-(4-(4-(5-chloro-4-(5-methyl-1H-pyrazol-3-ylamino)pyrimidin-2-ylamino)-5-fluoro-2-methylphenyl)piperidin-1-yl)pyrrolidine-1-carboxylate] it was 0.067 µM.
For `Cc1cc(Nc2nc(Nc3cc(C)c(C4CCN(C(C)C(=O)O)CC4)cc3F)ncc2Cl)n[nH]1` (centres unmarked) [Compound 54, 2-(4-(4-(5-chloro-4-(5-methyl-1H-pyrazol-3-ylamino)pyrimidin-2-ylamino)-5-fluoro-2-methylphenyl)piperidin-1-yl)propanoic acid] the value was 1.53 µM; for `Cc1cc(Nc2nc(Nc3cc(C)c(C4CCNC(=O)C4)cc3C)ncc2Cl)n[nH]1` (centres unmarked) [Compound 151, 4-(4-(5-chloro-4-(5-methyl-1H-pyrazol-3-ylamino)pyrimidin-2-ylamino)-2,5-dimethylphenyl)piperidin-2-one], 0.009 µM.
In turn, `Cc1cc(Nc2nc(Nc3cc(C)c([C@@H]4COC(=O)N4)cc3C)ncc2Cl)n[nH]1` [Compound 231, (R)-4-(4-(5-chloro-4-(5-methyl-1H-pyrazol-3-ylamino)pyrimidin-2-ylamino)-2,5-dimethylphenyl)oxazolidin-2-one] had an IC50 of 0.05 µM. This IC50 is about 5.6-fold higher than that of the molecule before.
For `Cc1cc(Nc2nc(Nc3cc(C)c(C4CCN(C(=O)c5ocnc5C)CC4)cc3F)ncc2Cl)n[nH]1` [Compound 136, (4-(4-(5-chloro-4-(5-methyl-1H-pyrazol-3-ylamino)pyrimidin-2-ylamino)-5-fluoro-2-methylphenyl)piperidin-1-yl)(4-methyloxazol-5-yl)methanone] the value was 0.035 µM; for `Cc1cc(Nc2nc(Nc3cc(C)c(C4CCN(S(=O)(=O)CCCN5CCOCC5)CC4)cc3C)ncc2Cl)n[nH]1` [Compound 194, 5-Chloro-N^2-(2,5-dimethyl-4-(1-(3-morpholinopropylsulfonyl)piperidin-4-yl)phenyl)-N^4-(5-methyl-1H-pyrazol-3-yl)pyrimidine-2,4-diamine], 0.013 µM.
`Cc1cc(Nc2nc(Nc3cc(C)c(C4CCN(C(=O)[C@H]5CCCN5C)CC4)cc3C)ncc2Cl)n[nH]1` [Compound 133, (R)-(4-(4-(5-chloro-4-(5-methyl-1H-pyrazol-3-ylamino)pyrimidin-2-ylamino)-2,5-dimethylphenyl)piperidin-1-yl)(1-methylpyrrolidin-2-yl)methanone]: the half-maximal inhibitory concentration (IC50) was found to be 0.013 µM. This lies in the double-digit nanomolar range.
For `COc1cc(Nc2ncc(Cl)c(Nc3cc(C)[nH]n3)n2)c(C)cc1C1CCN(CC(N)=O)CC1` [Compound 262, 2-(4-(4-(5-chloro-4-(5-methyl-1H-pyrazol-3-ylamino)pyrimidin-2-ylamino)-2-methoxy-5-methylphenyl)piperidin-1-yl)acetamide], the 50% inhibitory concentration (IC50) came to 0.019 µM.
Turning to `Cc1cc(Nc2nc(Nc3cc(C)c(C4CCN(C(=O)C5CNC5=O)CC4)cc3F)ncc2Cl)n[nH]1` (centres unmarked) [Compound 119, 3-(4-(4-(5-chloro-4-(5-methyl-1H-pyrazol-3-ylamino)pyrimidin-2-ylamino)-5-fluoro-2-methylphenyl)piperidine-1-carbonyl)azetidin-2-one], the midpoint of inhibition, the IC50, lay at 2.99 µM.
For `Cc1cc(Nc2nc(Nc3cc(C)c(C4CCN(C5CCOCC5)CC4)cc3F)ncc2Cl)n[nH]1` [Compound 209, 5-chloro-N^2-(2-fluoro-5-methyl-4-(1-(tetrahydro-2H-pyran-4-yl)piperidin-4-yl)phenyl)-N^4-(5-methyl-1H-pyrazol-3-yl)pyrimidine-2,4-diamine] the value was 0.027 µM; for `Cc1cc(Nc2nc(Nc3cc(C)c(C4CCN(C(=O)N5CCNC5=O)CC4)cc3C)ncc2Cl)n[nH]1` [Compound 113, 1-(4-(4-(5-chloro-4-(5-methyl-1H-pyrazol-3-ylamino)pyrimidin-2-ylamino)-2,5-dimethylphenyl)piperidine-1-carbonyl)imidazolidin-2-one], 0.013 µM; for `Cc1cc(Nc2nc(Nc3cc(C)c(C4CCN(C(=O)CN5C(C)CCCC5C)CC4)cc3C)ncc2Cl)n[nH]1` (centres unmarked) [Compound 103, 1-(4-(4-(5-chloro-4-(5-methyl-1H-pyrazol-3-ylamino)pyrimidin-2-ylamino)-2,5-dimethylphenyl)piperidin-1-yl)-2-(2,6-dimethylpiperidin-1-yl)ethanone], 0.009 µM.
In the case of `Cc1cc(Nc2nc(Nc3cc(C)c(C4CCN(C(=O)C5(O)CC5)CC4)cc3F)ncc2Cl)n[nH]1` [Compound 192, (4-(4-(5-chloro-4-(5-methyl-1H-pyrazol-3-ylamino)pyrimidin-2-ylamino)-5-fluoro-2-methylphenyl)piperidin-1-yl)(1-hydroxycyclopropyl)methanone] it was 0.021 µM; in that of `Cc1cc(Nc2nc(Nc3cc(C)c(C4CCN(Cc5cnccn5)CC4)cc3F)ncc2Cl)n[nH]1` [Compound 315, 5-chloro-N2-(2-fluoro-5-methyl-4-(1-(pyrazin-2-ylmethyl)piperidin-4-yl)phenyl)-N4-(5-methyl-1H-pyrazol-3-yl)pyrimidine-2,4-diamine], 0.036 µM; in that of `Cc1cc(C2CCN(C(=O)C3(N)CC3)CC2)c(C)cc1Nc1ncc(Cl)c(Nc2cc(C3CC3)[nH]n2)n1` [Compound 188, (1-aminocyclopropyl)(4-(4-(5-chloro-4-(5-cyclopropyl-1H-pyrazol-3-ylamino)pyrimidin-2-ylamino)-2,5-dimethylphenyl)piperidin-1-yl)methanone], 0.019 µM.
Turning to `CC(=O)N1CCC(C(=O)N2CCC(c3cc(F)c(Nc4ncc(Cl)c(Nc5cc(C)[nH]n5)n4)cc3C)CC2)CC1` [Compound 114], the 50% inhibitory concentration (IC50) came to 0.048 µM.
In the case of `Cc1cc(Nc2nc(Nc3cc(C)c(C4CCCN(C(=O)CN(C)C)C4)cc3C)ncc2Cl)n[nH]1` (centres unmarked) [Compound 180, 1-(3-(4-(5-chloro-4-(5-methyl-1H-pyrazol-3-ylamino)pyrimidin-2-ylamino)-2,5-dimethylphenyl)piperidin-1-yl)-2-(dimethylamino)ethanone] it was 0.025 µM; in that of `Cc1cc(Nc2nc(Nc3cc(C)c(C4CCN(C5COC5)CC4)cc3F)ncc2Cl)n[nH]1` [Compound 306, 5-chloro-N2-(2-fluoro-5-methyl-4-(1-(oxetan-3-yl)piperidin-4-yl)phenyl)-N4-(5-methyl-1H-pyrazol-3-yl)pyrimidine-2,4-diamine], 0.015 µM.
As to `Cc1cc(Nc2nc(Nc3cc(C)c(C4CCN(Cc5ccccn5)CC4)cc3C)ncc2Cl)n[nH]1` [Compound 307, 5-chloro-N2-(2,5-dimethyl-4-(1-(pyridin-2-ylmethyl)piperidin-4-yl)phenyl)-N4-(5-methyl-1H-pyrazol-3-yl)pyrimidine-2,4-diamine], the concentration for half-maximal inhibition (IC50) stood at 0.007 µM.
For `Cc1cc(Nc2nc(Nc3cc(C)c(C4CCN(C(=O)CN5CCCC5)CC4)cc3F)ncc2Cl)n[nH]1` [Compound 99, 1-(4-(4-(5-chloro-4-(5-methyl-1H-pyrazol-3-ylamino)pyrimidin-2-ylamino)-5-fluoro-2-methylphenyl)piperidin-1-yl)-2-(pyrrolidin-1-yl)ethanone] the value was 0.038 µM; for `Cc1cc(C2CCNCC2)c(C)cc1Nc1ncc(Cl)c(Nc2ccc[nH]c2=O)n1` [Compound 158, 3-(5-chloro-2-(2,5-dimethyl-4-(piperidin-4-yl)phenylamino)pyrimidin-4-ylamino)pyridin-2(1H)-one], 0.062 µM.

The record behind these values is patent US8859574B2 (IRM LLC, priority 2008, dated 2014).
